Data: patent publication US6441006B2, “Pharmaceutical compositions and methods for use” (Targacept, Inc., priority 1998, dated 2002)
Several values for one entry are separate records, joined by “and”; a condition that tells them apart may be missing. Equal values may be shown once.

Legend:
Rat brain synaptosomes = experiment: Neurotransmitter release from brain synaptosomes; type: biochemical; conditions: in the presence of 10 µM of ligand; percentage of release obtained with 10 µM (S)-(-)-nicotine or 300 µM TMA
Protocol: Neurotransmitter release was measured using techniques similar to those previously published (Bencherif M, et al. JPET 279: 1413-1421, 1996).
Rat brain synaptosomes were prepared as follows: Female Sprague Dawley rats (100-200 g) were killed by decapitation after anesthesia with 70% CO2. Brains are dissected, and hippocampus, striatum, and thalamus isolated, and homogenized in 0.32 M sucrose containing 5 mM HEPES pH 7.4 using a glass/glass homogenizer. The tissue was then centrifuged for 1000×g for 10 minutes and the pellet discarded. The supernatant was centrifuged at 12000×g for 20 minutes. The resultant pellet was re-suspended in perfusion buffer (128 mM NaCl, 1.2 mM KH2PO4, 2.4 mM KCl, 3.2 mM CaCl2, 1.2 mM MgSO4, 25 mM HEPES, 1 mM Ascorbic acid, 0.01 mM pargyline HCl and 10 mM glucose pH 7.4) and centrifuged for 15 minutes at 25000×g. The final pellet was resuspended in perfusion buffer and placed in a water bath (37° C.) for 10 minutes. Radiolabeled neurotransmitter is added (30 L^3H DA, 20 L^3H NE, 10 L^3H glutamate) to achieve a final concentration of 100 nM, vortexed and placed in a water bath for additional 10 minutes. Tissue-loaded filters is placed onto 11-mm diameter Gelman A/E filters on an open-air support. After a 10-minute wash period, fractions are collected to establish the basal release and agonist applied in the perfusion stream. Further fractions were collected after agonist application to re-establish the baseline. The perfusate was collected directly into scintillation vials and released radioactivity was quantified using conventional liquid scintillation techniques. Release of neurotransmitter was determined in the presence of […] of various ligands and was expressedas a percentage of release obtained with a concentration of 10 M (S)-(−)-nicotine or 300 MTMA resulting in maximal effects.

CNS nicotinic receptors = biological target: T1, CNS nicotinic receptors (Rattus norvegicus, UniProt P09483+P12390); experiment: Binding to relevant receptor sites; conditions: calculated from IC50 values using the method of Cheng et al.
T1 construct: Ki
Protocol: Binding of the compounds to relevant receptor sites was determined in accordance with the techniques described in U.S. Pat. No. 5,597,919 to Dull et al. Inhibition constants (Ki values), reported in nM, were calculated from the IC50 values using the method of Cheng et al., Biochem, Pharmacol. 22:3099 (1973).

[1] = tested on: ganglia-type nicotinic acetylcholine receptors; experiment: Interaction with ganglion receptors; type: cell-based; conditions: Emax, percentage of maximal activation induced by (S)-(-)-nicotine
Protocol: (§1) The determination of the interaction of the compounds with ganglionic receptors was carried out in accordance with the techniques described in U.S. Pat. No. 5,597,919 to Dull et al. The maximal activation for individual compounds (Emax) was determined as a percentage of the maximal activation induced by (S)-(−)-nicotine. Reported Emax values represent the amount released relative to (S)-(−)-nicotine on a percentage basis. […] Such preferable compounds have the capability to activate human CNS receptors without activating ganglia-type nicotinic acetylcholine receptors. Thus, there is provided a therapeutic window for utilization in the treatment of CNS disorders. […] The compounds begin to cause effects at ganglia only when employed in amounts of many times those required to activate dopamine release.
The determination of the interaction of the compounds with ganglionic receptors was carried out in accordance with the techniques described in U.S. Pat. No. 5,597,919 to Dull et al. The maximal activation for individual compounds (Emax) was determined as a percentage of the maximal activation induced by (S)-(−)-nicotine. Reported Emax values represent the amount released relative to (S)-(−)-nicotine on a percentage basis.

[2] = biological target: T2, muscle-type nicotinic acetylcholine receptors (Homo sapiens, UniProt P02708+P07510+Q07001); experiment: Interaction with muscle receptors; type: cell-based; conditions: Emax, percentage of maximal activation induced by (S)-(-)-nicotine
T2 construct: endogenous in cells; host or cells: TE671/RD (own knowledge of the cited US 5,597,919)
Protocol: as §1, with “muscle” for “ganglionic”, “muscle-type” for “ganglia-type”, “cause muscle” for “cause”, “effects” for “effects at ganglia”

T2 sequence (P02708 21-457): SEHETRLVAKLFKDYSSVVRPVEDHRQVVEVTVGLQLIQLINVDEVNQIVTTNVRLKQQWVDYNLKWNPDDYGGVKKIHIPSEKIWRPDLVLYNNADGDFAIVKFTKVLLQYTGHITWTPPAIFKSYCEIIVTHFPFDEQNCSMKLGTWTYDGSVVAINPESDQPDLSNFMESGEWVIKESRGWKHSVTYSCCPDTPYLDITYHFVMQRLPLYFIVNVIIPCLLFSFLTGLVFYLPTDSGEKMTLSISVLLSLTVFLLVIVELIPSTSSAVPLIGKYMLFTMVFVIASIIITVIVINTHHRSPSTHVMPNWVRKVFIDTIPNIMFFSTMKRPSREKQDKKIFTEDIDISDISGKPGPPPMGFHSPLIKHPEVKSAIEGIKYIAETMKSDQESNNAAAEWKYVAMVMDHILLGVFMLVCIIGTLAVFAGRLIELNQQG
T2 sequence (P11230 24-501 partner): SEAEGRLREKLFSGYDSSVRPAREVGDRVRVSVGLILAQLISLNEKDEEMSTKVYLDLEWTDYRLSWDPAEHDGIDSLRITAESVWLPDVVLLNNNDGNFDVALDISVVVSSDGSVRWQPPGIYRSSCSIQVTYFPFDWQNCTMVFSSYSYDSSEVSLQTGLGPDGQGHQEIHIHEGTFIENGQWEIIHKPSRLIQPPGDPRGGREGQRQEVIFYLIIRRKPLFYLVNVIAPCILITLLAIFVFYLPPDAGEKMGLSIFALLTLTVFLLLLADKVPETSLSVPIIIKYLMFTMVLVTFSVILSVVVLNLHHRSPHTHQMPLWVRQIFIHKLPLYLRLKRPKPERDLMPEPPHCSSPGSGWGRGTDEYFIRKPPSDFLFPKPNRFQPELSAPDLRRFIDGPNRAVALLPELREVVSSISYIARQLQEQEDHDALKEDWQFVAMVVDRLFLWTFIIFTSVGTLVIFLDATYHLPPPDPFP
T2 sequence (Q07001 22-517): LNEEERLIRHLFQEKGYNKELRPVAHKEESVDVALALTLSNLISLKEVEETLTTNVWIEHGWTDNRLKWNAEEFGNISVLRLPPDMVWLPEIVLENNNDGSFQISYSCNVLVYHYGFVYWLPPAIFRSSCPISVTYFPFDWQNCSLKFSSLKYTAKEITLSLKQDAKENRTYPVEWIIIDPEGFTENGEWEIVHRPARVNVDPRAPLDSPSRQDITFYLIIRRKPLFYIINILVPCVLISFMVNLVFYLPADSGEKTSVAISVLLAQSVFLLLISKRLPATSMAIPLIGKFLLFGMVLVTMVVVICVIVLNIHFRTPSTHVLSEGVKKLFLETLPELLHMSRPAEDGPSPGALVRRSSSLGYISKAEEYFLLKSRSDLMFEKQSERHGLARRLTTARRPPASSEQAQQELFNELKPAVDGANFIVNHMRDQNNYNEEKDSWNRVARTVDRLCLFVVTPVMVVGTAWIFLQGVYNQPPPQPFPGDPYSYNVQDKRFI
T2 sequence (P07510 23-517): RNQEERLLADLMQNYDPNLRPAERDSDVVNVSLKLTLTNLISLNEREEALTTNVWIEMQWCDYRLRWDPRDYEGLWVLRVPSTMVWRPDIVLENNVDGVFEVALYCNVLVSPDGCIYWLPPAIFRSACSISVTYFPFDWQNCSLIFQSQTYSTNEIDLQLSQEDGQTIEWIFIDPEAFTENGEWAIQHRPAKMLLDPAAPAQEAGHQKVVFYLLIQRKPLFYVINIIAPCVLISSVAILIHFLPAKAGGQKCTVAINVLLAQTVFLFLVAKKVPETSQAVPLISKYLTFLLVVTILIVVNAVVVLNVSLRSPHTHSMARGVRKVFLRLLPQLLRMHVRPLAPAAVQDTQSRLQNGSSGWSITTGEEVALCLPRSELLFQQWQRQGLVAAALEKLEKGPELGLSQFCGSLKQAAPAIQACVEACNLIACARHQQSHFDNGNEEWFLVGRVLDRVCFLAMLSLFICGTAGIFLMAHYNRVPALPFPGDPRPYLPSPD
T1 sequence (P09483 31-630): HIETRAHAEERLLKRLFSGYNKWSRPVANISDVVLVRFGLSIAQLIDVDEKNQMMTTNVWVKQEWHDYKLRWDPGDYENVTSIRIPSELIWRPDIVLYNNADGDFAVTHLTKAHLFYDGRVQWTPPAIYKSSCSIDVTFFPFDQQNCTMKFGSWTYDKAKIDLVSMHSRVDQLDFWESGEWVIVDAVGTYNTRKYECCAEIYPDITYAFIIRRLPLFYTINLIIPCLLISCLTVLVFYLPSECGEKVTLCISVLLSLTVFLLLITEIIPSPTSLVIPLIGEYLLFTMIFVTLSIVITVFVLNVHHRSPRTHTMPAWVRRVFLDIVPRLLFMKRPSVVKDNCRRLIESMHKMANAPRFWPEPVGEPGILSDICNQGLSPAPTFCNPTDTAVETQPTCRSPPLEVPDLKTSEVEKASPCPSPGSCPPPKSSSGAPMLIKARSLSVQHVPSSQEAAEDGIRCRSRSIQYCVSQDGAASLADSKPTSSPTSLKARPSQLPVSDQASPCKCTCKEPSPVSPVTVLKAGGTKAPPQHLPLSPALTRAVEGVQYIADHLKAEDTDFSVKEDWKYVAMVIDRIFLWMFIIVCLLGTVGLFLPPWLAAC
T1 sequence (P12390 25-500): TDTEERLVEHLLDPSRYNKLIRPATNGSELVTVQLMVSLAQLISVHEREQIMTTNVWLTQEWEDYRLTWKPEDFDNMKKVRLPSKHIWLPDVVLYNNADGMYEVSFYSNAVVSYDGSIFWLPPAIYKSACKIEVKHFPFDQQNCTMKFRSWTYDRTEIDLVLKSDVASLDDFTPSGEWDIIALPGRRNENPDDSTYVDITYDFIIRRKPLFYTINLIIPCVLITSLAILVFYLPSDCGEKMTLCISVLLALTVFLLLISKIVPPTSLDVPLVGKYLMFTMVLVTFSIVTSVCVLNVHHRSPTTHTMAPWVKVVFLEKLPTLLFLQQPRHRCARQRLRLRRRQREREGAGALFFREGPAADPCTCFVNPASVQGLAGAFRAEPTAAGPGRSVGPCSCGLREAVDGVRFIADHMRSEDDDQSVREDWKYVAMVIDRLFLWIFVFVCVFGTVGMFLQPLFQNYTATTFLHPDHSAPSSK

Compound	neurotransmitter release (Rat brain synaptosomes)	Ki (CNS nicotinic receptors)	effect at ganglia sites [1]	effect at muscle sites [2]	melting point
Methyl(4-(3-pyridyloxy)butyl)amine Hemigalactarate [Example 13]	56%	5520 nM	–	–	–
Methyl(3-(5-methoxy-3-pyridyloxy)propyl)amine Hemigalactarate [Example 17]	54%	15 nM	5%	10%	–
(3-(5-Chloro(3-pyridyloxy))-1-methylpropyl)methylamine Hemigalactarate [Example 27]	30%	1600 nM	–	–	–
Methyl(3-(6-methyl(3-pyridyloxy))propyl)amine Hemigalactarate [Example 20]	77%	12 nM	–	0%	–
Dimethyl(4-(3-pyridyloxy)butyl)amine Hemigalactarate [Example 14]	24%	3410 nM	–	–	–
Methyl(3-(5-isopropoxy-3-pyridyloxy)propyl)amine Monogalactarate [Example 18]	36%	21 nM	0%	22%	–
(3-Benzo[3,4-d]1,3-dioxolan-5-yloxypropyl)methylamine Hemigalactarate [Example 34]	41%	16600 nM	–	–	–
3-(3-Pyridyloxy)propylamine Hemigalactarate [Example 10]	0%	–	0%	0%	–
Dimethyl(3-(3-pyridyloxy)propyl)amine Hemigalactarate [Example 11]	32%	126 nM	5%	8%	–
Methyl(3-(2-methyl(3-pyridyloxy))propyl)amine Hemigalactarate [Example 21]	69%	236 nM	15%	0%	–
CN(C)CCOc1cccnc1 [Example 9, Dimethyl(2-(3-pyridyloxy)ethylamine Hemigalactarate]	0%	–	0%	0%	–
2-(3-Pyridyloxy)ethylamine Hemigalactarate [Example 7]	30%	1600 nM	–	–	–
3-(3-Aminopropoxy)phenylamine Hemigalactarate [Example 29]	14%	442 nM	–	–	–
(2-(5-Bromo(3-pyridylthio))ethyl)methylamine Hemigalactarate [Example 38]	–	3400 nM	–	–	–
Ethyl(3-(3-pyridyloxy)propyl)amine Hemigalactarate [Example 22]	57%	66 nM	13%	13%	–
Cyclopropyl(3-(3-pyridyloxy)propyl)amine Hemigalactarate [Example 25]	51%	165 nM	10%	9%	–
Methyl(3-tricyclo[7.3.1.0<5,13>]tridec-2-yloxypropyl)amine Hemigalactarate [Example 32]	–	100000 nM	–	–	–
(3-(3-Aminophenoxy)propyl)methylamine Hemigalactarate [Example 30]	30% and 60%	64 nM	5%	11%	–
Methyl(2-(3-pyridyloxy)ethyl)amine Hemigalactarate [Example 8]	143%	65 nM	0%	0%	–
4-(3-Pyridyloxy)butylamine Hemigalactarate [Example 12]	100%	232 nM	11%	0%	–
(3-(5-Bromo(3-pyridyloxy))propyl)methylamine Hemigalactarate [Example 6]	–	44 nM	–	–	–
Methyl(1-methyl-3-(3-pyridyloxy)propyl)amine Hemigalactarate [Example 26]	49%	138 nM	20%	16%	–
c1ccc(CNCCCOc2cccnc2)cc1 [Example 24, Benzyl(3-(3-pyridyloxy)propyl)amine]	29%	–	–	–	–
Cl.Cl.c1cncc(OC2CCNCC2)c1 [Example 35, 3-(4-Piperidinyloxy)pyridine Dihydrochloride]	–	–	9%	16%	71 to 73.5 °C
Methyl(3-(3-nitrophenoxy)propyl)amine Hemigalactarate [Example 28]	67%	392 nM	9%	10%	–
Dimethyl(3-(3-(methylamino)propoxy)phenyl)amine Hemigalactarate [Example 31]	16%	10000 nM	–	–	–
CC(C)NCCCOc1cccnc1 [Example 23, (Methylethyl)(3-(3-pyridyloxy)propyl)amine]	16%	8500 nM	–	–	–
(3-(5-Chloro(3-pyridyloxy))propyl)methylamine Hemigalactarate [Example 16]	100%	11 nM	7%	16%	–
3-(5-Chloro-3-pyridyloxy)propylamine Hemigalactarate [Example 15]	110%	46 nM	4%	0%	–
Methyl(3-(5-(phenylmethoxy)(3-pyridyloxy))propyl)amine Hemigalactarate [Example 19]	38%	2 nM	3%	1%	–
